Experimental data taken from PubChem BioAssay (NCI).
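Protocol summary: plate cells (96-well), add compound at 5 concentrations, incubate 48 h, interpolate endpoints linearly. The concentration for 50% growth inhibition is given as GI50. TGI marks complete inhibition of growth.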

What was measured:
Test in all cases: NCI anticancer screen, dose series, 48 h
NCI-H522 lung = system: NCI-H522 lung
UO-31 renal = system: UO-31 renal
HCT-116 colon = system: HCT-116 colon
MDA-MB-435 = system: MDA-MB-435
SF-539 CNS = system: SF-539 CNS
SR leukemia = system: SR leukemia
BT-549 breast = system: BT-549 breast
COLO 205 colon = system: COLO 205 colon
OVCAR-5 ovarian = system: OVCAR-5 ovarian
UACC-257 melanoma = system: UACC-257 melanoma

| SMILES | GI50 (NCI-H522 lung) | TGI (NCI-H522 lung) | GI50 (UO-31 renal) | TGI (UO-31 renal) | GI50 (HCT-116 colon) | TGI (HCT-116 colon) | GI50 (MDA-MB-435) | TGI (MDA-MB-435) | GI50 (SF-539 CNS) | TGI (SF-539 CNS) | GI50 (SR leukemia) | TGI (SR leukemia) | GI50 (BT-549 breast) | TGI (BT-549 breast) | GI50 (COLO 205 colon) | TGI (COLO 205 colon) | GI50 (OVCAR-5 ovarian) | TGI (OVCAR-5 ovarian) | GI50 (UACC-257 melanoma) | TGI (UACC-257 melanoma) |
| --- | --- | --- | --- | --- | --- | --- | --- | --- | --- | --- | --- | --- | --- | --- | --- | --- | --- | --- | --- | --- |
| CN1CCN(C(=O)c2ccc(NC(=O)Nc3ccc(-c4nc(N5CCOCC5)c5cccn5n4)cc3)cc2)CC1 | 0.0357 µM | 16.9 µM | 0.304 µM | 5.82 µM | 0.0507 µM | 15.2 µM | 0.032 µM | 0.41 µM | 0.0481 µM | 0.393 µM | 0.0465 µM | 8.7 µM | 0.104 µM | 0.789 µM | 0.0414 µM | 1.38 µM | 0.0439 µM | 12.8 µM | 0.102 µM | 0.576 µM |
| CC1CCCC(C#N)(NOC2=NCCN2)C1 (stereo unspecified) | 29 µM | > 100 µM | 31.8 µM | > 100 µM | 31.7 µM | > 100 µM | 35.4 µM | > 100 µM | 15.5 µM | 40.4 µM | 7.87 µM | > 100 µM | 19 µM | 42.3 µM | 61.3 µM | > 100 µM | > 100 µM | > 100 µM | 97.5 µM | > 100 µM |
| O=C1NC(=O)C(c2cccc(Cl)c2)=C1Nc1ccc(Cl)c(C(=O)O)c1 | > 25 µM | > 25 µM | > 25 µM | > 25 µM | > 25 µM | > 25 µM | > 25 µM | > 25 µM | > 25 µM | > 25 µM | > 25 µM | > 25 µM | > 25 µM | > 25 µM | > 25 µM | > 25 µM | > 25 µM | > 25 µM | > 25 µM | > 25 µM |
| Cc1nc(NS(=O)(=O)c2ccc(NCN3C(=O)c4ccccc4C3=O)cc2)oc1C | > 100 µM | > 100 µM | > 100 µM | > 100 µM | > 100 µM | > 100 µM | > 100 µM | > 100 µM | > 100 µM | > 100 µM | > 100 µM | > 100 µM | > 100 µM | > 100 µM | > 100 µM | > 100 µM | > 100 µM | > 100 µM | > 100 µM | > 100 µM |
| CC(C)[P+](c1ccccc1)(c1ccccc1)c1ccccc1 | 2.6 µM | 26.5 µM | > 100 µM | > 100 µM | 3.94 µM | > 100 µM | 2.65 µM | 25.3 µM | 15.6 µM | > 100 µM | 3.05 µM | > 100 µM | 5.55 µM | > 100 µM | 3.87 µM | 16 µM | 28.5 µM | > 100 µM | 1.07 µM | 7.06 µM |
| CCOC(=O)c1c(-c2ccccc2)[n+](=O)c2cc(F)c(F)cc2n1[O-] | 36.5 µM | > 100 µM | – | – | 0.238 µM | 0.584 µM | 1.93 µM | 3.6 µM | 1.95 µM | 3.68 µM | 0.187 µM | > 100 µM | 1.6 µM | 3.26 µM | – | – | 2.23 µM | 4.13 µM | 2.09 µM | 3.88 µM |
